# Experimental data published in paper PMC4192545, “Suramin Inhibits Hsp104 ATPase and Disaggregase Activity” (PLoS ONE, 2014).
# Assays:
# Hsp104^WT = biological target: T1, Hsp104^WT (Saccharomyces cerevisiae, UniProt P31539); assay: RepA1–70-GFP unfolding assay; assay type: biochemical, yeast; conditions: GroELtrap, ATP:ATPγS 1:1
# T1 construct: made in house; host or cells: E. coli BL21-DE3 RIL
# Description: RepA1–70-GFP unfolding was performed as described previously. Varying concentrations of Suramin (0, 25, or 100 µM) were included as noted.
# Next, we determined that Suramin hinders the unfoldase activity of Hsp104 using a RepA1–70-GFP substrate ( Figure 4A ). To assess RepA1–70-GFP unfolding without interference from spontaneous refolding, we added GroELtrap, which captures unfolded proteins to prevent refolding, [71].
# Figure 4 Suramin inhibits Hsp104-mediated substrate unfolding and translocation. (A) RepA1–70-GFP was incubated with Hsp104^WT and GroELtrap plus a 1∶1 mixture of ATP and ATPγS. GFP unfolding was measured by fluorescence. GroELtrap alone is shown as a negative control (red line). Fluorescence values were normalized to initial raw fluorescence for each sample. Values represent mean ±S.D. (n = 3). (B) FITC-casein (0.1 µM) was incubated at 25°C with HAP (1 µM hexamer) and ClpP (21 µM monomer) plus ATP (5 mM) and an ATP regeneration system. Degradation of FITC-casein was monitored by fluorescence. Initial fluorescence was subtracted from raw fluorescence values for each sample. HAP alone is shown as a negative control (red line). Values represent mean ±S.D. (n = 5).
# Hsp104^A503V = biological target: T2, Hsp104^A503V (Saccharomyces cerevisiae, UniProt P31539, A503V); assay: ATPase assay, Hsp104^A503V; assay type: biochemical, yeast
# T2 construct: made in house; host or cells: E. coli BL21-DE3 RIL
# Description: Wild-type or mutant Hsp104 (0.25 µM monomer) in ATPase buffer (20 mM HEPES-KOH pH 7.4, 20 mM NaCl and 10 mM MgCl2) was incubated for 60 or 10 min at 25°C in the presence of ATP (1 mM) as noted. ATPase activity was assessed by the release of inorganic phosphate determined by using a malachite green phosphate detection kit (Innova).
# Figure 7 Hsp104 variants respond differently to Suramin than Hsp104^WT. (A) Hsp104 variants (0.25 µM monomer) were incubated for 10 min with ATP (1 mM) and varying concentrations of Suramin. The amount of Pi produced was measured by absorbance at 635 nm. Absorbance values were normalized to the absorbance produced by each Hsp104 variant in the absence of inhibitor. Values represent mean ±S.D. (n = 6). (B) Urea-denatured firefly luciferase aggregates were incubated for 90 min at 25°C with Hsp104 variants (1 µM hexamer) plus 1∶1 mixtures of ATP and ATPγS (or ATP alone) and varying concentrations of Suramin. Luciferase reactivation was then determined and normalized to untreated disaggregase activity for each variant in the presence of ATPγS: ATP (or ATP alone). 1∶1 mixtures of ATP and ATPγS were used for Hsp104^WT and Hsp104^T317A, while ATP alone was used for Hsp104^A503V and Hsp104^N728A. Values represent mean ±S.D. (n = 6–12).
# ClpB = biological target: T3, ClpB (Escherichia coli, UniProt P63284); assay: ClpB luciferase reactivation assay; assay type: biochemical, E. coli
# T3 construct: made in house
# Description: Luciferase reactivation was performed as described, [37]. To assemble aggregates, firefly luciferase (50 µM) in luciferase refolding buffer (LRB, 25 mM HEPES-KOH, 7.4, 150 mM KAOc, 10 mM MgAOc, 10 mM DTT) with 6 M urea was incubated at 30°C for 20 min. Luciferase was then rapidly diluted 100-fold into LRB, divided into 100 µL aliquots, snap frozen in liquid N2, and stored at −80°C. For reactivation assays, aggregated luciferase (50 nM) was incubated with Hsp104 (1 µM hexamer), plus 2.6 mM ATPγS, 2.6 mM ATP and an ATP regeneration system (1 mM creatine phosphate, 0.25 µM creatine kinase (Roche Applied Science)) for 90 minutes at 25°C. Luciferase assay system was purchased from Promega. Luciferase activity was assessed by luminescence measured on a Safire^2 microplate reader (Tecan, Männedorf, Switzerland). The half maximal inhibitory concentration (IC50) was calculating by fitting luciferase-refolding data at different Suramin concentrations with Prism (GraphPad Software, Inc., La Jolla, CA).
# (A) ClpB (0.25 µM monomer) was incubated for 10 min with ATP (1 mM) and varying concentrations of Suramin. The amount of Pi produced was measured by absorbance at 635 nm. Absorbance values were normalized to the absorbance produced by ClpB in the absence of inhibitor. Values represent mean ±S.D. (n = 6). (B) Urea-denatured firefly luciferase aggregates were incubated for 90 min at 25°C with ClpB (1 µM hexamer) in the presence of 1∶1 mixtures of ATP and ATPγS and varying concentrations of Suramin. Reactivation of luciferase was then determined by luminescence and converted to % WT ClpB activity (activity of 1 µM WT ClpB in the presence of ATP and ATPγS). Values represent mean ±S.D. (n = 6–12). TEXT PRINTED IN THE PICTURE: (A) Suramin: Normalized ATPase Activity: 1.03 ([Suramin] μM: 0); Normalized ATPase Activity: 0.76 ([Suramin] μM: 100); Normalized ATPase Activity: 0.78 ([Suramin] μM: 50); Normalized ATPase Activity: 0.60 ([Suramin] μM: 25); Normalized ATPase Activity: 0.59 ([Suramin] μM: 10); Normalized ATPase Activity: 0.65 ([Suramin] μM: 5); Normalized ATPase Activity: 1.01 ([Suramin] μM: 1) | (B) Suramin: Normalized Luciferase Refolding Activity: 1.00 ([Suramin] μM: 0); Normalized Luciferase Refolding Activity: 0.16 ([Suramin] μM: 100); Normalized Luciferase Refolding Activity: 1.03 ([Suramin] μM: 50); Normalized Luciferase Refolding Activity: 1.39 ([Suramin] μM: 25); Normalized Luciferase Refolding Activity: 2.23 ([Suramin] μM: 10); Normalized Luciferase Refolding Activity: 1.82 ([Suramin] μM: 5); Normalized Luciferase Refolding Activity: 1.02 ([Suramin] μM: 1)
# T3 sequence (P63284 whole entry): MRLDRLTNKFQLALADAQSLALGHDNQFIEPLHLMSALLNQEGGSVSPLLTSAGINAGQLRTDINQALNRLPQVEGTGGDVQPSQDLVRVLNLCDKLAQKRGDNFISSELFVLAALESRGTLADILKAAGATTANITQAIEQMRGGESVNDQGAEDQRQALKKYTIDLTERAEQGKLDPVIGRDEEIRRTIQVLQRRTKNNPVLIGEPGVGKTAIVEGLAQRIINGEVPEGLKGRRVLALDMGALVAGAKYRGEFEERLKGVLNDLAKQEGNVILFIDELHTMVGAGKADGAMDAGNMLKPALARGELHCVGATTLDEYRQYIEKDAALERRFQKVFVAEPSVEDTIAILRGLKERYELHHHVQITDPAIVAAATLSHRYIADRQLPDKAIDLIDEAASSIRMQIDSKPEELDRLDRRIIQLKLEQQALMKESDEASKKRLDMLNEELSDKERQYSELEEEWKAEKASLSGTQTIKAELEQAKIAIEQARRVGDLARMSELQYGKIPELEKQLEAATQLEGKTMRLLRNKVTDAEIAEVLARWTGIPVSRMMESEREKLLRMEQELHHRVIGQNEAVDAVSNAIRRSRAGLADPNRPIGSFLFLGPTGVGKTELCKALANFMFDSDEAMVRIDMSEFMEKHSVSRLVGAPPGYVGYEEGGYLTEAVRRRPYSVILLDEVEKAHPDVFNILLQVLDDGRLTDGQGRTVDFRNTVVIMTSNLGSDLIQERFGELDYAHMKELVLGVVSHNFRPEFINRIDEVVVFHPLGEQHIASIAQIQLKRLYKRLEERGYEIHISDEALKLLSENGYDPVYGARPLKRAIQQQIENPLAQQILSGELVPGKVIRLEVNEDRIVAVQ
# T1 sequence (P31539 whole entry): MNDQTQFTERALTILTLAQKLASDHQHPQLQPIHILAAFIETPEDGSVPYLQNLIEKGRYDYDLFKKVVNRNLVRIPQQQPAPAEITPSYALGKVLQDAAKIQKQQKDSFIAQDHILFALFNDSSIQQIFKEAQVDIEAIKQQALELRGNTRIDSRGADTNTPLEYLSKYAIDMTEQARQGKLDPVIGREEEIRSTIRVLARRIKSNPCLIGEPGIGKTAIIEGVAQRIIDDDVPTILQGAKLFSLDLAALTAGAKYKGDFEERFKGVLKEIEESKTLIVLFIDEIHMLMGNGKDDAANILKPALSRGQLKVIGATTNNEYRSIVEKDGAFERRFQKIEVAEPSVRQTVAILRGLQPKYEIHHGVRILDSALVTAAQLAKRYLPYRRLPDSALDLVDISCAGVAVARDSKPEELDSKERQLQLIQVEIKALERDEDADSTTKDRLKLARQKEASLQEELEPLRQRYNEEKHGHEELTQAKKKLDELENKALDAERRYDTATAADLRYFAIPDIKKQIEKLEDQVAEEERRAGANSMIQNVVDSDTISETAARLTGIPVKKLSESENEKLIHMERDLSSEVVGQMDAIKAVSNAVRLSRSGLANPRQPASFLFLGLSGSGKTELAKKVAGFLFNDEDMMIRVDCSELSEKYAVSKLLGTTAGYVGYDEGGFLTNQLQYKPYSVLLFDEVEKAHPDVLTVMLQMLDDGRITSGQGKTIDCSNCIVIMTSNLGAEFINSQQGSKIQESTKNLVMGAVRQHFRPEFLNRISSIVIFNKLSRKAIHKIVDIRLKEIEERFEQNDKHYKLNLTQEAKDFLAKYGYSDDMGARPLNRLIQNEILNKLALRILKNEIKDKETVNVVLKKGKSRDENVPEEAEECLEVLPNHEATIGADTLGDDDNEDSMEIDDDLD
# T2 sequence (P31539 whole entry A503V): as the sequence (P31539 whole entry) above, with A503V counted along it
structure (smiles),measurement,setting,value
Cc1ccc(C(=O)Nc2ccc(S(=O)(=O)O)c3cc(S(=O)(=O)O)cc(S(=O)(=O)O)c23)cc1NC(=O)c1cccc(NC(=O)Nc2cccc(C(=O)Nc3cc(C(=O)Nc4ccc(S(=O)(=O)O)c5cc(S(=O)(=O)O)cc(S(=O)(=O)O)c45)ccc3C)c2)c1 [Suramin],Effect on RepA1–70-GFP unfolding by Hsp104,Hsp104^WT; Suramin 25 µM,only mildly inhibited
same,Effect on RepA1–70-GFP unfolding by Hsp104,Hsp104^WT; Suramin 100 µM,prevented substrate unfolding
same,Inhibitor concentration of maximal ATPase inhibition,Hsp104^A503V; Hsp104^A503V,25 µM
same,activity at 25 µM,Hsp104^A503V; read-out: Hsp104^A503V ATPase activity relative to uninhibited,18%
same,Normalized Luciferase Refolding Activity,"ClpB; ClpB 1 µM hexamer, Suramin 100 µM, 90 min 25°C, ATP:ATPγS 1:1, Figure 5B",0.16
same,Normalized Luciferase Refolding Activity,"ClpB; ClpB, Suramin 1 µM, Figure 5B",1.02
same,Normalized Luciferase Refolding Activity,"ClpB; ClpB, Suramin 5 µM, Figure 5B",1.82
same,Normalized Luciferase Refolding Activity,"ClpB; ClpB, Suramin 10 µM, Figure 5B",2.23
same,Normalized Luciferase Refolding Activity,"ClpB; ClpB, Suramin 25 µM, Figure 5B",1.39
same,Normalized Luciferase Refolding Activity,"ClpB; ClpB, Suramin 50 µM, Figure 5B",1.03
same,ClpB refolding power retained,ClpB; Suramin 50 µM,100%
same,remaining activity at 100 µM,"ClpB; Suramin 100 µM, read-out: ClpB disaggregase activity remaining",16%
same,Effect on ClpB luciferase reactivation,ClpB; low concentrations of Suramin,increased the amount of luciferase ClpB was able to reactivate
